Assay results taken from patent US20050152995A1, “Methods and compositions for promoting axon regeneration and cell replacement therapy” (priority 2003, published 2005).
Where two headings read alike, the source gives them in different places.

What was measured:
[1] = tested on: severed optic nerve (astrocytes, RGC axons); format: in vivo, mouse; settings: for axonal regeneration after optic nerve crush: n=5
Method: Optic nerve crush was performed in Bcl-2tg (14) and wild-type littermate mouse pups, prior to the knowledge of genotypes. Regeneration was assessed and corroborated by three labeling methods: anterograde axon tracing, immunofluorescent staining, and retrograde labeling of RGCs that regenerated their axons. […].
To assess the functional significance of astrocyte maturation in optic nerve regeneration, we treated adult (2-3-month-old) wild-type and Bcl-2tg mice with astrotoxin (L-alpha-aminoadipate), which selectively kills astrocytes and has minimal effects on surrounding neurons and myelin (25, 26). Immediately after optic nerve crush, gelform soaked in L-alpha-aminoadipate solution (10 mg/ml in PBS, Sigma) or PBS was placed against the crush site. […] Regenerating axons extended exclusively into the GFAP-negative area and stopped abruptly where GFAP staining reappeared (FIG. 4B, D).
To quantify axonal regeneration, we used electron microscopy to examine optic nerve sections of adult wild-type and Bcl-2tg mice treated with astrotoxin or PBS. Degenerating myelin and tissue debris were found in sections of all groups (FIG. 4I, J). In treated Bcl-2tg mice (n=5), a large number of regenerating axons were seen 0.5 mm posterior to the crush site, an area devoid of astrocytes and their cellular processes (FIG. 4J). […] In contrast, in other three groups, few axons were present in optic nerve sections if they were collected at 0.5 mm posterior to the crush (n=3/group). Regenerating axons were 20-fold more abundant in astrotoxin-treated Bcl-2tg mice than in PBS-treated wild-type mice (P<0.001) (FIG. 4K). Thus, elimination of mature astrocytes promoted robust optic nerve regeneration in adult Bcl-2tg mice.

[2] = tested on: severed optic nerve (astrocytes, RGC axons); format: in vivo, mouse
Method: To evaluate the effects of lithium used simultaneously with astrotoxin in optic nerve regeneration in adult mice, an on optic nerve crush was performed in adult mice. Immediately after the optic nerve crush, a piece of gelform soaked in astrotoxin solution or PBS was placed against the crush site. Thereafter, mice were divided into two groups: one group received a diet containing lithium, and the other received a control diet.
Mice were sacrificed on day 8 after the nerve crush to examine axon regeneration.
Surgical procedure: All experimental procedures and use of animals were approved by Animal Care and Use Committee in the Schepens Eye Research Institute and adhered to the ARVO statement for the Use of Animals in Ophthalmic and Vision Research. Adult C57BL/6J mice were anesthetized with a mixture of ketamine (12.5 mg/ml, Sigma) and xylazine (2.5 mg/ml, Sigma) (5 μ/g). Optic nerve was exposed intraorbitally and crushed for 3 seconds using fine forceps. Immediately after nerve crush, a piece of gelfoam soaked with L-α-aminoadipate (10 mg/ml; Sigma) was placed against the crushed site. Gelfoam soaked with phosphate buffered saline (PBS) was used as control. To ensure continued delivery of astrotoxin, the gelfoam was replaced every 3 days post-injury (DPI). Following recovery from the optic nerve surgery, mice were divided into two groups: one group received a diet supplemented with lithium ([…], Bio-Serv), and the other group received a control diet. Mice were sacrificed on 8 DPI, and the mouse serum was collected to determine serum lithium concentration (Medtox Laboratories Inc).
(§1) Retinal histology and immunohistochemistry: The eyeball and optic nerve were dissected out, fixed in 4% paraformaldehyde for 1 hr, cryoprotected and embedded in O.T.C. The tissues were then cryosectioned at 12 μm and subjected to cresyl violet staining or immunohistochemistry. For immunofluorescence labeling, tissue sections were reacted with Cy-3 conjugated mouse anti-GFAP (1:1000, Sigma) or rabbit anti-GAP-43 (1:200, Chemicon). The signal of GAP-43 was then visualized by FITC-conjugated goat anti-rabbit IgG (1:250, Vector Lab.). To detect the expression of Bcl-2 protein, the eyeballs were dissected out and embedded without fixation. Before immunostaining, retinal sections were fixed with acetone that was stored at −20° C. for 15 min and incubated with Bcl-2 antibody (1:50, Transduction lab) followed by reaction with biotinylated anti-mouse IgG (1:100, Vector Lab.) and DTAF-conjugated Streptavidin (1:100, Jackson Lab). The sections were then counter-stained with DAPI (1:150, Sigma) to reveal cell nuclei before they were mounted with Vectashield (Vector Lab) and examined under epifluorescence microscope.
Quantitation of Axon Regeneration: Following staining with anti-GAP-43 antibody, the longest distance of axon regeneration axon was measured from the crushed site in optic nerve sections. At least 4 sections were sampled from each optic nerve, and the measured lengths of regenerating axons were averaged. Statistical significance was determined by One-way ANOVA and Tukey-Kramer multiple comparison tests.

[3] = mice on lithium-containing diet, n=9, 8 DPI
Method: To determine whether lithium induces the expression of Bcl-2 in adult retinal neurons in vivo, we fed mice with food chow containing lithium.
Adult C57BL/6J mice were anesthetized with a mixture of ketamine (12.5 mg/ml, Sigma) and xylazine (2.5 mg/ml, Sigma) (5 μ/g). […] Mice were sacrificed on 8 DPI, and the mouse serum was collected to determine serum lithium concentration (Medtox Laboratories Inc).

[4] = tested on: Bcl-2
Source text: as §1

[5] = tested on: retinal ganglion cells (RGCs)
Method: The neuroprotective effect of lithium-containing diet on the survival of fluorogold (FG)-labeled RGCs was assessed.
After sacrificing, whole-mount retinas were prepared. At least 12 non-overlapping areas of the retina were selected randomly and photographed. Surviving RGCs that were labeled with FluoroGold were counted, and the density of survival RGCs was determined.

[6] = tested on: inner limiting membrane (ILM) of the retina; test: Retinal transplantation into collagenase-treated wild-type retinas; format: in vivo, mouse; settings: collagenase 100 U/ml, n=4
Method: To distinguish implanted cells and their cellular processes from the host environment, we used retinas from mice expressing an enhanced green fluorescent protein (EGFP) transgene driven by a chicken b-actin promoter and cytomegalovirus enhancer (24′). Suspensions of retinal cells from postnatal day 0 (P0) EGFP mice were injected into the subretinal space of adult wild-type or GFAP−/−Vim−/− hosts. […] To confirm that this failure of neural integration into the wild-type hosts was not a result of the site of transplantation, we injected cells into the vitreous cavity (n=4) (FIG. 6B). […] Few neurons migrated and extended neurites into the damaged retinal area but not beyond (FIG. 1B).
To exclude the possibility that this change in the property of the ILM in GFAP−/−Vim−/− mice affected the fate of retinal transplants, we treated wild-type retinas with collagenase (100 U/ml) to break down the ILM (n=4). By comparing with untreated wild-type hosts (n=3), we found no difference in graft cell migration and neurite extension into the retinas of collagenase treated and untreated mice (data not shown).

[7] = adult wild-type mice, day 8 after nerve crush

N[C@@H](CCCC(=O)O)C(=O)O [astrotoxin, L-alpha-aminoadipate]
abundance of regenerating axons relative to PBS-treated wild-type mice ([1]; adult Bcl-2tg mice, electron microscopy, 0.5 mm posterior to the crush, P<0.001): 20 fold | axonal regeneration after optic nerve crush ([1]; adult Bcl-2tg mice): robust regeneration | GFAP immunofluorescence staining in the optic nerve ([1]; adult wild-type and Bcl-2tg mice, 10 mg/ml in PBS on gelform at crush site): created a GFAP-negative area | effect on myelin and neuronal processes ([1]; adult wild-type and Bcl-2tg mice, immunofluorescence staining): no effect | axonal regeneration after optic nerve crush ([1]; adult wild-type mice): a few axons sprouted past the lesion site | GFAP expression along the crushed optic nerve [2, 7]: a region devoid of immunorective astrocytes (GFAP-negative) was generated | axon regeneration (GAP-43 labeling) [2, 7]: no sign of regeneration | length of regenerating axons extending from the crushed site ([2]; anti-GAP-43 immunostaining, day 8 after nerve crush): 50 μm

O=C([O-])[O-].[Li+].[Li+] [lithium, lithium carbonate]
serum concentration of lithium [3]: 0.80±0.15 mEq/l | Bcl-2 mRNA in retina ([4]; RT-PCR, lithium-containing diet vs regular diet): strong induction | Bcl-2 protein expression in retina ([4]; immunostaining, lithium-containing diet): detected in the ganglion cell layer | number of surviving RGCs ([5]; following optic nerve crush, not significant vs control (P>0.05)): 404 /mm^2 | density of FG-labeled RGCs ([5]; normal retina): 2134 /mm^2 | GFAP expression along the crushed optic nerve ([2]; mouse, in vivo): detected along the entire nerve | axon regeneration (GAP-43 labeling) ([2]; mouse, in vivo): no sign of regeneration | length of regenerating axons extending from the crushed site ([2]; mouse, in vivo): 80 μm

collagenase
graft cell migration and neurite extension into the retina vs untreated hosts [6]: no difference
